The results in this text go back to patent US20160000911A1, “COMBINATION THERAPY OF A TYPE II ANTI-CD20 ANTIBODY WITH INCREASED ANTIBODY DEPENDENT CELLULAR CYTOTOXITY (ADCC)” (ROCHE GLYCART AG, priority 2008, published 2016).

For assay [1], the system named is WSU-DLCL2 human B-Cell Non-Hodgkin-Lymphoma (NHL). The experiment in a line: Tumor growth inhibition study in vivo, WSU-DLCL2 xenograft (Example 1). The arrangement: species or system SCID beige mice. An excerpt: Antibody buffer included histidine, trehalose and polysorbate 20.
Cyclophposphamide and vincristine were purchased as clinical formulation from Baxter Oncology GmbH, Halle, Germany or medac, Gesellschaft für klinische Spezialpräparate mbH, Hamburg, Germany, respectively. Dilution was adjusted from reconstituted stock solution.
WSU-DLCL2 human Non-Hodgkin-Lymphoma (NHL) cells were kindly provided from Hoffmann-La Roche, Inc., Nutley, N.J., USA. […] Passage 4 was used for transplantation. Cells were co-injected with Matrigel.
Continuous health monitoring was carried out on regular basis.
Animal treatment started at the day of randomisation 9 days after cell transplantation. […] The corresponding vehicle was administered on the same days. Cyclophosphamide and vincristine were given i.v. once weekly on day 9, 15, 23, 30, 37, 44, 51 and 58 at 25 mg/kg or 0.25 mg/kg, respectively. In the combination therapy groups, both antibodies were administered 24 hours after the chemotherapeutic agents on day 10, 16, 24, 31, 38, 45, 52 and 59.

The target in assay [2] is T1, CD20 on Raji cells (ATCC-No. CCL-86) (Homo sapiens, UniProt P11836).
T1 construct: generated by direct immunofluorescence using the Burkitt's lymphoma cell line Raji (ATCC-No. CCL-86); host or cells: Raji (Burkitt's lymphoma cell line)
T1 sequence (P11836 1-297): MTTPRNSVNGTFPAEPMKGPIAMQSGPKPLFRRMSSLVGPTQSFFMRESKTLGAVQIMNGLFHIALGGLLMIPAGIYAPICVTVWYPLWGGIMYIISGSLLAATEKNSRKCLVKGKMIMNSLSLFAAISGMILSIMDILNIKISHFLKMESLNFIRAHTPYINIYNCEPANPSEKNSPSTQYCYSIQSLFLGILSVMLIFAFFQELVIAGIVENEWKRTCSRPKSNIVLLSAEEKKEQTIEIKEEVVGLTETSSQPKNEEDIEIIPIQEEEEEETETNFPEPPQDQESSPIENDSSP
In words: Ratio of the binding capacities to CD20 on Raji cells compared to rituximab (direct immunofluorescence, Cy5, FACSArray). The note with it: MFI at EC50 of Cy5-labeled antibodies, 30 min at 4° C. As to the method: MFI is the mean fluorescent intensity. The “Cy5-labeling ratio” as used herein means the number of Cy5-label molecules per molecule antibody.
Raji cells (ATCC-No. CCL-86) were maintained in culture in RPMI-1640 medium (PanBiotech GmbH, Cat.-No. PO4-18500) containing 10% FCS (Gibco, Cat.-No. 10500-064). […] 5*10^5 cells per sample were stained for 30 min at 4° C. Afterwards, cells were washed in culture medium. Propidium iodide (PI) staining was used to exclude dead cells.
Then the ratio of the binding capacities to CD20 on Raji cells (ATCC-No. CCL-86) is calculated according to the following formula: […]

Take “anti-CD20 antibody B-HH6-B-KV1 GE: Type II anti-CD20 antibody; humanized B-Ly1, glycoengineered B-HH6-B-KV1 with increased ADCC (WO 2005/044859, WO 2007/031875)”: in assay [1] (day 35 after cell transplantation, compared to the control group, i.v. once weekly, antibodies 30 mg/kg, cyclophosphamide 25 mg/kg, vincristine 0.25 mg/kg), the tumor growth inhibition came out at 85%. Besides, the “Tumor growth delay, T − C value” in assay [1] (median time to reach 1500 mm^3, treatment minus control, until day 64 after cell transplantation) worked out at 19 days. In addition, the “binding capacity to CD20 on Raji cells compared to rituximab” value in assay [2] is “reduces binding capacity”.
